# Reference: patent US20240246946A1, “MODULATORS OF TREX1” (Constellation Pharmaceuticals, Inc., priority 2021, published 2024)
# pIC50: −log10 of the molar value.
# Key:
# [1] = molecular target: T1, full length human TREX1 (Homo sapiens, UniProt Q9NSU2); assay: TREX1 Kinetics Assays (TR-FRET association and dissociation, global fit with Kintek Explorer); format: binding; settings: for residence time: hTREX1, TR-FRET kinetics; for koff: hTREX1, TR-FRET, 25° C., global fit
# T1 construct: N-terminally His-Tev tagged full length human TREX1; made in house; host or cells: E. coli
# T1 sequence (Q9NSU2 1-314): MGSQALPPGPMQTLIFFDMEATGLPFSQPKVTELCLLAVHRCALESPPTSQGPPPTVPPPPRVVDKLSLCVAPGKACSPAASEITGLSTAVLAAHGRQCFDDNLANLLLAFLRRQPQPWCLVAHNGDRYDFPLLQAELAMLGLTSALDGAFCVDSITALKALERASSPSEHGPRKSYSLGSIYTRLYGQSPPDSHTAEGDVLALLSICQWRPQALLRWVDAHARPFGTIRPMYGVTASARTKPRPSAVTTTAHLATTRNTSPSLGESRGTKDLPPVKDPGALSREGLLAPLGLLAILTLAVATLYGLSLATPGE
# Procedure: Compound binding kinetics were assessed using a pair of TR-FRET assays which measure the proportion of protein bound to a biotinylated TREX1 inhibitor (“probe”).
# N-terminally His-Tev tagged full length human TREX1 (expressed in E. coli and purified in house), complexed with Eu-W1024-anti-6×His (“Eu”; PerkinElmer) in reaction buffer (50 mM Tris, 150 mM NaCl, 2 mM DTT, 0.1 mg/mL BSA, 0.01% (w/v) Tween-20, 5 mM MgCl2, pH 7.4) was combined with an equal volume of test compound in reaction buffer and incubated at 25° C. Concentrations at this stage were 1 nM TREX1/Eu complex, and four concentrations of compound (diluted from 10 mM stocks in 100% DMSO). At defined time points, 18 μL of this mixture was withdrawn and combined with 2 μL probe to a final concentration of 1 μM probe. After incubating for 30 seconds, 18 μL was withdrawn and combined with 2 μL streptavidin-allophycocyanin (“SA-APC”; PerkinElmer) to a final concentration of 1.5 μM SA-APC. Fifteen μL of this mixture was then immediately transferred to a 384-well Black ProxiPlate Plus (PerkinElmer) and read in an EnVision plate reader (PerkinElmer) measuring fluorescence at 615 nm and 665 nm following excitation w/337 nm laser light. Final concentrations were 0.8 nM TREX1/Eu complex, 0.9 μM probe, and 1.5 μM SA-APC.
# N-terminally His-Tev tagged full length human TREX1 (expressed in E. coli and purified in house), complexed with Eu-W1024-anti-6×His (“Eu”; PerkinElmer) in reaction buffer (50 mM Tris, 150 mM NaCl, 2 mM DTT, 0.1 mg/mL BSA, 0.01% (w/v) Tween-20, 5 mM MgCl2, pH 7.4) was combined with an equal volume of test compound in reaction buffer. Concentrations at this stage were 100 nM TREX1/Eu complex and 100 nM test compound (diluted from 10 mM stocks in 100% DMSO). Following an equilibration period of at least an hour at 25° C., this mixture was diluted 100-fold into reaction buffer containing 1 μM probe, and incubated at 25° C. At defined time points, 36 μL of the reaction mixture was withdrawn and combined with 4 μL streptavidin-allophycocyanin (“SA-APC”; PerkinElmer) to a final concentration of 1.5 μM SA-APC. Fifteen μL of this mixture was then immediately transferred to duplicate wells of a 384-well Black ProxiPlate Plus (PerkinElmer) and read in an EnVision plate reader (PerkinElmer) measuring fluorescence at 615 nm and 665 nm following excitation w/337 nm laser light.
# The TR-FRET signal, a ratio of 665 nm/615 nm emitted light, was converted to fraction enzyme bound to test compound by normalizing to low signal (no enzyme or test compound) and high signal (no test compound) controls. Data from both association and dissociation experiments were fitted globally using Kintek Explorer software, which computes the rate constants directly.
# [2] = molecular target: T1, full length human TREX1; assay: hTREX1 Biochemical Assay (fluorescence, dsDNA substrate degradation); settings: biochemical, read-out: hTREX1 IC50
# Procedure, shortened: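 Cleavage of 60 nM TEX615/quencher-labelled dsDNA in pH 7.4 Tris buffer with 5 mM MgCl2, 1.0% DMSO, run 18 hours at 25° C, EDTA-quenched; fluorescence read-out.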
residence time [1],koff [1],pIC50 [2],SMILES
346 min,4.82e-05 s⁻¹,–,"Cc1cnc(C(c2ccccc2C#N)C(C)c2nc(C(=O)Nc3cnoc3)c(O)c(=O)n2C)cn1 (single isomer, unassigned) [Example 46 D1E2]"
408 min,4.08e-05 s⁻¹,> 9.00,"Cc1ncc(C(c2ccccc2C#N)C(C)c2nc(C(=O)Nc3cnoc3)c(O)c(=O)n2C)cn1 (single isomer, unassigned) [Example 67 D1E2]"
